From US12145943B2, “Solid forms of 3-(5-Fluorobenzofuran-3-yl)-4-(5-methyl-5H-[1,3]dioxolo[4,5-f]indol-7-yl)pyrrole-2,5-dione” (Actuate Therapeutics Inc., priority 2017, dated 2024)
Converted amounts (≈) assume the structure as drawn.

Columns and labels:
Format in all cases: physicochemical
[1] = Aqueous solubility study (water or buffers, HPLC of filtrate, XRPD of remaining solids); conditions: for solubility: shaken 200 rpm 24 h
Procedure: The solubility of 9-ING-41 polymorphic forms in water or buffers were determined using HPLC under the following conditions: • Instrument: Agilent 1260 Infinity Series • Diluent: Acetonitrile • Flow rate: 1.5 mL/min • Mobile phase: A: 0.05% TFA in water • B: 0.05% TFA in Acetonitrile • Injection volume: 1 μL • Column: XDB-C18, 4.6*50 mm, 1.8 μm • Column Temperature: 40° C. • Detection: 220 nm • Run Time: 8 minutes (2 minutes delay for next injection) • Gradient (T/B %): 0.0/70, 6.0/100, 8.0/100 10-30 mg of 9-ING-41 Form I was added to 2 mL of water or a buffer solution buffered at pH=1.2, 4.5, or 6.8. The samples were shaken at 200 rpm in a shaker for 24 h. The sample vials were visually examined to ensure saturation. 1 mL of each suspension was filtered at 24 hours through a 0.22 µm nylon syringe filter into another clean clear glass vial. The filtrate was analyzed using HPLC (accurately dilute if necessary) and the remaining solids were analyzed using XRPD.

[2] = Dynamic vapor sorption (DVS) analysis; conditions: 80% relative humidity, 25.0±1.0° C.
Procedure: DVS analyses were conducted on an IGAsorp (HidenIsochema Ltd.). For an isotherm test, the chamber temperature was maintained by a water bath at constant 25.0±1.0° C.

[3] = Mechanical and pressure effects on crystalline form (XRPD)
Procedure: XRPD analyses were performed using an X-ray diffractometer (Bruker D8 advance) equipped with LynxEye detector. The instrument parameters were listed below. • Scan: 3° (2θ) to 40° (2θ) • Increment: 0.02° (2θ) • Scan speed: 0.3 sec/step • Voltage: 40 KV • Current: 40 mA • Rotation: On • Sample hold: Zero-background sample holder TGA Analysis 9.90 mg of 9-ING-41 Form I was weighed into mortar and ground for 5 min. […] 9-ING-41 Form I was pressed into two tablets. The weight of tablets was 38.9 mg and 36.2 mg, respectively.

[4] = Solubility in 30% acetonitrile in water (HPLC of filtrate, XRPD of remaining solids)
Procedure: The solubility of 9-ING-41 polymorphic forms in 30% Acetonitrile in water was determined using HPLC under the following conditions: • Instrument: Agilent 1260 Infinity Series • Diluent: 30% acetonitrile aqueous solution • Flow rate: 1.5 mL/min • Mobile phase: A: 0.05% TFA in water • B: 0.05% TFA in acetonitrile • Injection volume: […] • Column: XDB-C18, 4.6*50 mm, 1.8 μm • Column Temperature: 40° C. • Detection: 220 nm • Run Time: 8 minutes (2 minutes delay for next injection) • Gradient (T/B %): 0.0/70, 6.0/100, 8.0/100
About 5 mg of 9-ING-41 Form I was added into 2 mL of 30% acetonitrile/70% water (vol/vol). The sample was shaken at 200 rpm in a shaker for 24 h. The vial was visually examined to ensure saturation. 1 mL of the suspension was filtered through a 0.22 µm nylon syringe filter into another clean clear glass vial at 2 hours and at 24 hours. The filtrates were analyzed using HPLC (accurately dilute if necessary) and the remaining solids were analyzed using XRPD.

Row | SMILES | crystalline form of remaining solids (XRPD) ([1]; after 24 h in water or pH 1.2, 4.5, 6.8 buffer) | solubility ([1]; pH 1.2 buffer) | solubility ([1]; pH 4.5 buffer) | solubility ([1]; pH 6.8 buffer) | 9-ING-41 in the filtrates by HPLC ([1]; water or pH 1.2, 4.5, 6.8 buffer, filtrate at 24 hours) | solubility ([1]; water) | weight gain (DVS) [2] | crystalline form after grinding (XRPD) ([3]; ground in mortar for 5 min) | crystalline form after pressing into tablets (XRPD) ([3]; pressed into tablets, then ground into powder) | crystalline form of remaining solids (XRPD) ([4]; after shaking in 30% acetonitrile/70% water) | solubility at 24 h ([4]; aqueous with cosolvent or surfactant or cyclodextrin, thermodynamic from solid, 30% acetonitrile/70% water (vol/vol), after 24 hours, read-out: 9-ING-41 in filtrate (solubility) by HPLC) | solubility at 2 h ([4]; aqueous with cosolvent or surfactant or cyclodextrin, thermodynamic from solid, 30% acetonitrile/70% water (vol/vol), after two hours, read-out: 9-ING-41 in filtrate (solubility) by HPLC) | solubility at 30 min ([4]; aqueous with cosolvent or surfactant or cyclodextrin, thermodynamic from solid, 30% acetonitrile/70% water (vol/vol), after 30 minutes)
1 | Cn1cc(C2=C(c3coc4ccc(F)cc34)C(=O)NC2=O)c2cc3c(cc21)OCO3 [9-ING-41 Form I, 3-(5-fluoro-1-benzofuran-3-yl)-4-[5-methyl-2H,5H-[1,3]dioxolo[4,5-f]indol-7-yl]-2,5-dihydro-1H-pyrrole-2,5-dione] | no change in crystalline form | poor | poor | poor | could not be detected | poor | about 0.23 % by weight | had not changed | had not changed | no change in crystalline form | 48 µg/mL (≈ 119 µM) | 46 µg/mL (≈ 114 µM) | –
2 | Cn1cc(C2=C(c3coc4ccc(F)cc34)C(=O)NC2=O)c2cc3c(cc21)OCO3 [Amorphous 9-ING-41, 3-(5-fluorobenzofuran-3-yl)-4-(5-methyl-5H-[1,3]dioxolo[4,5-f]indol-7-yl)pyrrole-2,5-dione] | – | – | – | – | – | – | – | – | – | – | – | – | 57 µg/mL (≈ 141 µM)
